For one assay, the target named is T1, human eIF4E protein (Homo sapiens, UniProt P06730).
T1 construct: purchased Novus NBP-45314
Kind of assay: Biochemical competitive binding assay (TR-FRET competition, EDA-m7GDP-ATTO-647N probe). The following applies: read-out: hEIF4E TR-FRET IC50. The method, boiled down:
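IC50 values come from 4-parameter fits of the normalized 665/620 nm TR-FRET ratio. Compound was first incubated 15 min with 4 nM recombinant His-eIF4E bound to 2.5 nM Eu-anti-His antibody, then 15 min with 5 nM m7GDP-ATTO-647N tracer, in pH 7.5 HEPES buffer with 100 mM KCl, Tween-20 and BSA.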

Assay [1] has as its system COLO 205 colorectal tumor cells. Briefly: Tumor cell viability inhibition assay (CellTiter-Glo 2.0, 72 hours). The assay is classed as cell-based. The following applies: COLO 205 cell viability. In outline:
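IC50 derived by 4-parameter fitting after normalizing luminescence to DMSO and max-inhibition wells. Compounds tested as 11 concentrations in 4-fold steps on COLO 205 cells seeded at 1500 per well in RPMI-1640/10% FBS; ATP content measured with CellTiter-Glo 2.0 after 72 h.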
A general note: ATP-based viability assays read luminescence as a measure of living cells.

A value given as a limit tells only on which side of the number the result lay.

For orientation: IC50 means the concentration that gives 50% inhibition.

T1 sequence (P06730 whole entry): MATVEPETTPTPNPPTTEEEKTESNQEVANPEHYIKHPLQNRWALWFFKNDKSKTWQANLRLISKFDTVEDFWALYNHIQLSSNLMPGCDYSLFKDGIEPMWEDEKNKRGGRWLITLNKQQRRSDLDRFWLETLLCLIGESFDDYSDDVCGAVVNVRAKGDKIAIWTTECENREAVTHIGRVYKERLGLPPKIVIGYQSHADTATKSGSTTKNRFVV

`Cc1cc(-c2cc(Cl)ccc2OCCn2c(C)nc3c(c2=O)C[C@@H](N2CCO[C@H](CC(F)(F)F)C2)CC3)c2scc(C(=O)O)c2n1` (single isomer, unassigned) [Compound 526]: the IC50 was below 100 nM at human eIF4E protein and below 5000 nM in assay [1] (Homo sapiens, COLO 205, 72 h).

Take `Cc1cc(-c2cc(Cl)ccc2OCCn2c(C)nc3c(c2=O)C[C@@H](N2CCC(COC(F)(F)F)CC2)CC3)c2scc(C(=O)O)c2n1` (single isomer, unassigned) [Compound 407]: the IC50 at human eIF4E protein was below 100 nM; in assay [1] (Homo sapiens, COLO 205, 72 h) it was below 5000 nM.

For `Cc1cc(-c2cc(Cl)ccc2OCCn2c(C)nc3c(c2=O)C[C@@H](N2CCCC[C@@H]2c2cccc(F)c2)CC32CC2)c2scc(C(=O)O)c2n1` (single isomer, unassigned) [Compound 629, 7-(5-chloro-2-(2-(6′-(2-(3-fluorophenyl)piperidin-1-yl)-2′-methyl-4′-oxo-6′,7′-dihydro-4′H-spiro[cyclopropane-1,8′-quinazolin]-3′(5′H)-yl)ethoxy)phenyl)-5-methylthieno[3,2-b]pyridine-3-carboxylic acid], the IC50 lay within 500 to 5000 nM at human eIF4E protein and 5000 to 20000 nM in assay [1] (Homo sapiens, COLO 205, 72 h).

As for `Cc1nc2c(c(=O)n1CC#Cc1ccc(Cl)cc1-c1ccnc3c(C(=O)O)csc13)C[C@H](N1CCC[C@]3(C1)CC3(F)F)CC2` (single isomer, unassigned) [Compound 570, 7-(5-chloro-2-(3-(6-(1,1-difluoro-5-azaspiro[2.5]octan-5-yl)-2-methyl-4-oxo-5,6,7,8-tetrahydroquinazolin-3(4H)-yl)prop-1-yn-1-yl)phenyl)thieno[3,2-b]pyridine-3-carboxylic acid], the IC50 at human eIF4E protein is below 100 nM; in assay [1] (Homo sapiens, COLO 205, 72 h), below 5000 nM.

As to `Cc1cc(-c2cc(Cl)ccc2C#CCn2c(C)nc3c(c2=O)CC(C)(N2CCCC4(C2)CC4(F)F)CC3)c2scc(C(=O)O)c2n1` (single isomer, unassigned) [Compound 614], the IC50 is below 100 nM at human eIF4E protein and below 5000 nM in assay [1].

As to `Cc1cc(-c2cc(Cl)ccc2OCCn2c(C)nc3c(c2=O)C[C@@H](N2C[C@@H]4CC[C@H]2CC4OC(F)(F)F)CC32CC2)c2scc(C(=O)O)c2n1` (single isomer, unassigned) [Compound 605], the IC50 on human eIF4E protein is below 100 nM; in assay [1] (Homo sapiens, COLO 205, 72 h) it was below 5000 nM.

Take `Cc1cc(-c2cc(Cl)ccc2OCCn2c(C)nc3c(c2=O)C[C@H](N2CCC(Oc4ccc(F)cc4F)CC2)CC3)c2scc(C(=O)O)c2n1` (single isomer, unassigned) [Compound 595]: the IC50 at human eIF4E protein was below 100 nM; in assay [1] (Homo sapiens, COLO 205, 72 h), below 5000 nM.

Take `Cc1cc(-c2cc(Cl)ccc2OCCn2c(C)nc3c(c2=O)C[C@H](N2[C@@H]4CC[C@H]2C[C@@H](OC(F)(F)F)C4)CC3)c2scc(C(=O)O)c2n1` (single isomer, unassigned) [Compound 398]: the IC50 on human eIF4E protein was 100 to 500 nM; in assay [1] (Homo sapiens, COLO 205, 72 h), above 20000 nM.

Turning to `COC1CCN(C2CCc3nc(C)n(CC#Cc4ccc(Cl)cc4-c4ccnc5c(C(=O)NS(C)(=O)=O)csc45)c(=O)c3C2)CC1` (single isomer, unassigned) [Compound 491], the values for the IC50 (on human eIF4E protein; in assay [1]) were below 100 nM and below 5000 nM, respectively.

In the case of `Cc1cc(-c2cc(Cl)ccc2OCCn2c(C)nc3c(c2=O)C[C@H](N2CCC[C@H](OC(F)(F)F)C2)CC3)c2scc(C(=O)O)c2n1` (single isomer, unassigned) [Compound 457], the IC50 is below 100 nM on human eIF4E protein and below 5000 nM in assay [1] (Homo sapiens, COLO 205, 72 h).

In the case of `Cc1cc(-c2cc(Cl)ccc2OCCn2c(C)nc3c(c2=O)CC(C)(N2CCC(OC(F)(F)F)CC2)CC3)c2scc(C(=O)O)c2n1` (stereo not drawn) [Compound 536], the IC50 on human eIF4E protein was below 100 nM; in assay [1] (Homo sapiens, COLO 205, 72 h) it was below 5000 nM.

For `Cc1cc(-c2cc(Cl)ccc2OCCn2c(C)nc3c(c2=O)C[C@@H](N2C[C@H]4CC[C@@H]2CC4OC(F)(F)F)CC32CC2)c2scc(C(=O)O)c2n1` (single isomer, unassigned) [Compound 607], the concentration for half-maximal inhibition (IC50) on human eIF4E protein is below 100 nM; in assay [1] (Homo sapiens, COLO 205, 72 h) it was below 5000 nM.

With `Cc1csc(C2CCN([C@H]3CCc4nc(C)n(CCOc5ccc(Cl)cc5-c5cc(C)nc6c(C(=O)O)csc56)c(=O)c4C3)CC2)n1` (single isomer, unassigned) [Compound 428], the IC50 at human eIF4E protein was below 100 nM; in assay [1] (Homo sapiens, COLO 205, 72 h) it was below 5000 nM.

As for `Cc1cc(-c2cc(Cl)ccc2OCCn2c(C)nc3c(c2=O)C[C@@H](N2CCC[C@H](C(F)F)C2)CC32CC2)c2scc(C(=O)O)c2n1` (single isomer, unassigned) [Compound 610], the concentration for half-maximal inhibition (IC50) at human eIF4E protein was below 100 nM; in assay [1] (Homo sapiens, COLO 205, 72 h), below 5000 nM.

For the molecule `Cc1cc(-c2cc(Cl)ccc2OCCn2c(C)nc3c(c2=O)C[C@@H](N2CCC(c4ncco4)CC2)CC3)c2scc(C(=O)O)c2n1` (single isomer, unassigned) [Compound 461], the half-maximal inhibitory concentration (IC50) on human eIF4E protein was below 100 nM; in assay [1] (Homo sapiens, COLO 205, 72 h), below 5000 nM.

In the case of `Cc1cc(-c2cc(Cl)ccc2OCCn2c(C)nc3c(c2=O)C[C@H](N2C[C@H]4CC[C@@H]2CC4OC(F)(F)F)CC3)c2scc(C(=O)O)c2n1` (single isomer, unassigned) [Compound 499], the half-maximal inhibitory concentration (IC50) at human eIF4E protein was below 100 nM; in assay [1] (Homo sapiens, COLO 205, 72 h), below 5000 nM.

Take `COC1(C(F)(F)F)CC2CCC(C1)N2[C@H]1CCc2nc(C)n(CCOc3ccc(Cl)cc3-c3cc(C)nc4c(C(=O)O)csc34)c(=O)c2C1` (single isomer, unassigned) [Compound 503]: the IC50 on human eIF4E protein lay in the range of 100 to 500 nM; in assay [1] (Homo sapiens, COLO 205, 72 h), 5000 to 20000 nM.

Take `Cc1cc(-c2cc(Cl)ccc2OCCn2c(C)nc3c(c2=O)C[C@@H](N2[C@@H]4CC[C@H]2C[C@@H](OC(F)(F)F)C4)CC3)c2scc(C(=O)O)c2n1` (single isomer, unassigned) [Compound 396]: the IC50 at human eIF4E protein was below 100 nM; in assay [1] (Homo sapiens, COLO 205, 72 h), below 5000 nM.

Turning to `Cc1cc(-c2cc(Cl)ccc2OCCn2c(C)nc3c(c2=O)C[C@H](N2CCC[C@H](C(F)(F)F)C2)CC3)c2scc(C(=O)O)c2n1` (single isomer, unassigned) [Compound 381], the IC50 on human eIF4E protein is below 100 nM; in assay [1] (Homo sapiens, COLO 205, 72 h), below 5000 nM.

As for `Cc1nc2c(c(=O)n1CC#Cc1ccc(Cl)cc1-c1ccnc3c(C(=O)O)csc13)CC(N1CCC(OC(F)(F)F)CC1)CC2` (single isomer, unassigned) [Compound 534], the IC50 at human eIF4E protein was below 100 nM; in assay [1] (Homo sapiens, COLO 205, 72 h), below 5000 nM.

On to `Cc1cc(-c2cc(Cl)ccc2OCCn2c(C)nc3c(c2=O)CC(N2CCC(c4cccc(C(F)(F)F)c4)CC2)CC3)c2scc(C(=O)O)c2n1` (stereo not drawn) [Compound 127], for which the IC50 at human eIF4E protein is below 100 nM; in assay [1] (Homo sapiens, COLO 205, 72 h), below 5000 nM.

As for `Cc1cc(-c2cc(Cl)ccc2OCCn2c(C)nc3c(c2=O)C[C@@H](N2CCC(c4cnc(C(F)(F)F)nc4)CC2)CC3)c2scc(C(=O)O)c2n1` (single isomer, unassigned) [Compound 585], the IC50 was below 100 nM on human eIF4E protein and below 5000 nM in assay [1] (Homo sapiens, COLO 205, 72 h).

For the molecule `Cc1cc(-c2cc(Cl)ccc2OCCn2c(C)nc3c(c2=O)C[C@H](N2CCC4(CC2)COCCO4)CC3)c2scc(C(=O)O)c2n1` (single isomer, unassigned) [Compound 424], the 50% inhibitory concentration (IC50) was below 100 nM at human eIF4E protein and below 5000 nM in assay [1] (Homo sapiens, COLO 205, 72 h).

Take `Cc1cc(-c2cc(Cl)ccc2OCCn2c(C)nc3c(c2=O)C[C@@H](N2Cc4cc(F)c(F)cc4C2)CC3)c2scc(C(=O)O)c2n1` (single isomer, unassigned) [Compound 533]: the IC50 on human eIF4E protein was below 100 nM; in assay [1] (Homo sapiens, COLO 205, 72 h) it was below 5000 nM.

Regarding `Cc1cc(-c2cc(Cl)ccc2OCCn2c(C)nc3c(c2=O)C[C@H](N2CCC(Oc4ccc(F)cc4F)CC2)CC32CC2)c2scc(C(=O)O)c2n1` (single isomer, unassigned) [Compound 611], the half-inhibitory concentration (IC50) on human eIF4E protein was below 100 nM; in assay [1] (Homo sapiens, COLO 205, 72 h), below 5000 nM.

For the molecule `Cc1cc(-c2cc(Cl)ccc2OCCn2c(C)nc3c(c2=O)C[C@@H](N2CCCC[C@@H]2c2cccc(C(F)(F)F)c2)CC3)c2scc(C(=O)O)c2n1` (single isomer, unassigned) [Compound 588], the IC50 fell in the range of 100 to 500 nM on human eIF4E protein and 5000 to 20000 nM in assay [1] (Homo sapiens, COLO 205, 72 h).

Regarding `Cc1cc(-c2cc(Cl)ccc2OCCn2c(C)nc3c(c2=O)CC(N2CC4(CCCN(CC(F)(F)F)C4)C2)CC3)c2scc(C(=O)O)c2n1` (single isomer, unassigned) [Compound 508], the figures for the IC50 (on human eIF4E protein; in assay [1]) were below 100 nM and below 5000 nM, respectively.

Turning to `Cc1cc(-c2cc(Cl)ccc2OCCn2c(C)nc3c(c2=O)C[C@H](N(C)CC2CC(F)(F)C2)CC32CC2)c2scc(C(=O)O)c2n1` (single isomer, unassigned) [Compound 568], the IC50 on human eIF4E protein was below 100 nM; in assay [1] (Homo sapiens, COLO 205, 72 h) it was below 5000 nM.

Take `CO[C@H]1CCN([C@@H]2CCc3nc(C)n(CCOc4ccc(Cl)cc4-c4cc(C)nc5c(C(=O)O)csc45)c(=O)c3C2)CC12CC2` (single isomer, unassigned) [Compound 520]: the IC50 on human eIF4E protein was below 100 nM; in assay [1] (Homo sapiens, COLO 205, 72 h), below 5000 nM.

For the molecule `Cc1cc(-c2cc(Cl)ccc2OCCn2c(C)nc3c(c2=O)C[C@@H](N2CCCC[C@@H]2c2cccc(F)c2)CC3)c2scc(C(=O)O)c2n1` (single isomer, unassigned) [Compound 543], the IC50 at human eIF4E protein was below 100 nM; in assay [1] (Homo sapiens, COLO 205, 72 h), above 20000 nM.

Take `Cc1cc(-c2cc(Cl)ccc2OCCn2c(C)nc3c(c2=O)C[C@@H](N2CCC(c4cc(F)ccc4C(F)(F)F)CC2)CC3)c2scc(C(=O)O)c2n1` (single isomer, unassigned) [Compound 586]: the IC50 at human eIF4E protein is below 100 nM; in assay [1] (Homo sapiens, COLO 205, 72 h) it was below 5000 nM.

`COC1CCN(C2(C)CCc3nc(C)n(CCOc4ccc(Cl)cc4-c4cc(C)nc5c(C(=O)O)csc45)c(=O)c3C2)CC1` (single isomer, unassigned) [Compound 497]: the IC50 on human eIF4E protein is 100 to 500 nM; in assay [1] it was above 20000 nM.

On to `Cc1cc(-c2cc(Cl)ccc2OCCn2c(C)nc3c(c2=O)CC(N2CCC(CC(F)(F)F)CC2)CC3(C)C)c2scc(C(=O)O)c2n1` (single isomer, unassigned) [Compound 492], for which the half-maximal inhibitory concentration (IC50) on human eIF4E protein is below 100 nM; in assay [1] (Homo sapiens, COLO 205, 72 h) it was below 5000 nM.

Source of the values: patent publication US20240246918A1, “COMPOUNDS AND COMPOSITIONS AS EIF4E INHIBITORS AND THE USES THEREOF” (Ribometrix, Inc., priority 2022, published 2024).
